Our source for the IC50 values is patent US10752626B2, “Iso-citrate dehydrogenase (IDH) inhibitor” (SHANGHAI METON PHARMACEUTICAL CO., LTD, priority 2016, dated 2020).

This test concerns the target IDH1 R132H (Homo sapiens (Human), UniProt O75874, R132H). Briefly: Biochemical assay for inhibition of mutant IDH1 R132H. As to conditions: tested in triplet. The source says:
The present disclosure provides a biochemical assay method for detecting the IDH inhibition and selectivity of the compounds by detecting IDH enzyme activity directly.
Wild-type IDH enzyme could convert NADP^+ to NADPH when it catalyzes the α-KG producing reaction. Mutant IDH enzyme could convert NADPH to NADP^+ when it catalyzes the D-2-HG producing reaction. So the activity of wild-type and mutant IDH1/2 could be measured by monitoring NADPH level change: in the reaction catalyzed by wild-type IDH1/2, the newly generated NADPH is utilized instantly by coupled diaphorase-resazurin reaction to generate resorufin which is fluorescent (at Excitation 544 nm, Emission 590 nm) and thus NADPH is monitored indirectly; while in the reaction catalyzed by mutant IDH1/2, NADPH is directly monitored as it is fluorescent (at Excitation 340 nm, Emission 460 nm). By monitoring the change of NADPH level in the reaction, the enzyme activity could be determined rapidly and efficiently, IC50 of a compound could also be assayed.
The test compounds were prepared into 50 mM stock solutions in DMSO and stored at −20° C. Each test compound stock was further diluted to obtain a 100× stock solution at a concentration of 200 μM, 100 μM, 50 μM, 25 μM, 12.5 jμM, 6.25 μM and 3.125 μM, respectively, for the final use on the day of test.
Inhibition of Mutant IDHJ (R132H or R132C):
Solution A was prepared by combining 1 M Tris-HCl pH7.5 (300 μL), 5 M NaCl (450 μL), 1 M MgCl2 (150 μL), 1 M DTT (15 μL), 20 mg/mL BSA (37.5 μL), 20 mM NADPH (20 μL), and 0.5 mM α-KG (40 μL), followed by adding deionized water to a final volume of 15 mL.
Reaction buffer was prepared by combining 1 M Tris-HCl pH 7.5 (200 μL), 5 M NaCl (300 μL), 1 M MgCl2 (100 μL), 1 M DTT (10 μL) and 20 mg/mL BSA (25 μL), followed by adding deionized water to a final volume of 10 mL.
Solution B was prepared by combining the reaction buffer (5 mL) and […] IDH1-R132H (5.21 μL) or 107 μM IDH1-R132C (4.67 μL).
148 μL Solution A was added into each sample well of a 96-well plate P1, and then 2 μL of the test compound solution at each concentration and 2 μL of DMSO (negative control/blank) were added into individual sample well respectively. 50 μL of Solution B was added into each of the sample wells having test compounds and one sample well having DMSO only, and 50 μL of reaction buffer was added into another sample well having DMSO only, respectively. P1 was put into BioTek Synergy H4 Microplate reader (BioTek Instruments Inc., Winooski, U.S.), and the program was set as follows: 37° C., shake plate 5 seconds, run kinetic mode, total detection time 20 min, detection intervals 40 seconds, detection mode fluorescence (at Excitation 340 nm, Emission 460 nm). The data were exported, the relative enzyme activity and the half-maximal inhibitory concentration (IC50) for the test compound were calculated. Relative enzyme activity was calculated as the absolute value of the slope of the Emission 460 reads of each well plotted against time (which represents the conversion rate of ca-KG to 2-HG through IDH1 modulated utilization of NADPH). The Dose-response curve was drawn and the IC50 was calculated via fitting. The IDH inhibition and selectivity of each test compound can be evaluated according to the effect of the compounds on the IDH enzyme activity.
The IDH inhibition activity of the compounds were assessed according to Test 5 of the Biological evaluation section. The test for mutant IDH1 R132H/R132C inhibition of each compound was carried out in triplet. For IDH1 R132H, the enzyme activity of exemplary Compounds 16, 21, 22, 23, 24 and 31 is plotted as a function of logarithm of the concentration of the compound in FIGS. 8A-8C, 9A-9C, 10A-10C, 11A-11C, 12A-12C and 13A-13C, respectively. […]

Chain of IDH1 R132H (O75874 whole entry R132H): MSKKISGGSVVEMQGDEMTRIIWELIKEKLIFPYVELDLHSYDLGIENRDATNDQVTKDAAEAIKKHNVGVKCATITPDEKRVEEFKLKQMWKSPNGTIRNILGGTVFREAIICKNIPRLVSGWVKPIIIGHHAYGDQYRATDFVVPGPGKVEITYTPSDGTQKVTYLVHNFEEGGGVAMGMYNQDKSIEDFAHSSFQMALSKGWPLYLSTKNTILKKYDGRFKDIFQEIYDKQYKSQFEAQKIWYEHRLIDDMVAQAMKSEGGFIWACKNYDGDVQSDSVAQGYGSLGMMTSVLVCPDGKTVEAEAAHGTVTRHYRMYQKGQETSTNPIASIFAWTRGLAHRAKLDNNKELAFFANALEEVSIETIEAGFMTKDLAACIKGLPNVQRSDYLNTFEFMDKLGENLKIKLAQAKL

`CCN1Cc2c(ccnc2N[C@@H](C)c2ccc(Oc3ccc(C)cc3)cc2)C1=O` [Compound 16, (S)-2-ethyl-4-(1-(4-(p-tolyloxy)phenyl)ethylamino)-2,3-dihydro-1H-pyrrolo [3,4-c]pyridin-1-one]: the IC50 is less than 1000 nM.

For the compound `CCN1Cc2c(ccnc2N[C@@H](C)c2ccc(Oc3ccccc3)c(F)c2)C1=O` [Compound 23, (S)-2-ethyl-4-((1-(3-fluoro-4-phenoxyphenyl)ethyl)amino)-2,3-dihydro-1H-pyrrolo[3,4-c]pyridin-1-one], the IC50 was less than 1000 nM.
